The results in this text go back to publication PMC5218480 (PLoS ONE, 2017).

The experiment concerns MV-4-11 cells. As to the kind of experiment: Gene expression microarray analysis (Affymetrix PrimeView) and GSEA. Type of experiment: cell-based, human. The settings on record: ProbeSet 11757268_x_at; LIST B. More on the design: RFU PODN (11730768_x_at) / Fold change /veh PODN (11730768_x_at) / RFU LINC00158 (11744669_a_at) / Fold change /veh LINC00158 (11744669_a_at) / RFU DUSP10 (11751237_a_at) / Fold change /veh DUSP10 (11751237_a_at) / RFU ID3 (11757404_x_at) / Fold change /veh ID3 (11757404_x_at) / RFU PLEKHG5 (11737974_s_at) / Fold change /veh PLEKHG5 (11737974_s_at) / RFU LRRC4B (11730491_at) / Fold change /veh LRRC4B (11730491_at) / RFU GIMAP4 (11747438_a_at) / Fold change /veh GIMAP4 (11747438_a_at) / RFU KRT8 (11758183_x_at) / Fold change /veh KRT8 (11758183_x_at) / RFU CNN1 (11734310_a_at) / Fold change /veh CNN1 (11734310_a_at) / RFU VPS37D (11726825_at) / Fold change /veh VPS37D (11726825_at) / RFU C10orf10 (11716522_x_at) / Fold change /veh C10orf10 (11716522_x_at) / RFU KIR2DL2 /// KIR2DL4 /// KIR2DL5A /// KIR2DL5B /// KIR2DS1 /// KIR2DS2 /// KIR2DS3 /// KIR2DS4 /// KIR3DL3 /// KIR3DL3 /// KIR3DS1 (11738374_at) / Fold change /veh KIR2DL2 /// KIR2DL4 /// KIR2DL5A /// KIR2DL5B /// KIR2DS1 /// KIR2DS2 /// KIR2DS3 /// KIR2DS4 /// KIR3DL3 /// KIR3DL3 /// KIR3DS1 (11738374_at) / RFU C1QL1 (11718748_at) / Fold change /veh C1QL1 (11718748_at) / RFU TMPRSS4 (11747572_a_at) / Fold change /veh TMPRSS4 (11747572_a_at) / RFU HAMP (11756126_x_at) / Fold change /veh HAMP (11756126_x_at) / RFU RNFT2 (11725882_a_at) / Fold change /veh RNFT2 (11725882_a_at) / RFU NR4A2 (11747474_a_at) / Fold change /veh NR4A2 (11747474_a_at) / RFU ABCC12 (11746883_a_at) / Fold change /veh ABCC12 (11746883_a_at) / RFU TMEM136 (11760407_x_at) / Fold change /veh TMEM136 (11760407_x_at) / RFU CLDN22 /// WWC2 (11732394_at) / Fold change /veh CLDN22 /// WWC2 (11732394_at) / RFU HLA-DPB1 (11760878_x_at) / Fold change /veh HLA-DPB1 (11760878_x_at) / RFU SPINT1 (11716480_a_at) / Fold change /veh SPINT1 (11716480_a_at) / RFU GAP43 (11754022_s_at) / Fold change /veh GAP43 (11754022_s_at) / RFU A4GNT (11735810_at) / Fold change /veh A4GNT (11735810_at) / RFU PRB3 (11715151_x_at) / Fold change /veh PRB3 (11715151_x_at) / RFU TUBB4B (11761932_at) / Fold change /veh TUBB4B (11761932_at) / RFU CAPN14 (11732068_a_at) / Fold change /veh CAPN14 (11732068_a_at) / RFU TMCC2 (11721928_a_at) / Fold change /veh TMCC2 (11721928_a_at) / RFU IRGQ (11745062_a_at) / Fold change /veh IRGQ (11745062_a_at) / RFU FAM174B (11720279_a_at) / Fold change /veh FAM174B (11720279_a_at) / RFU TMPRSS4 (11748680_a_at) / Fold change /veh TMPRSS4 (11748680_a_at) / RFU FAM212B (11763350_a_at) / Fold change /veh FAM212B (11763350_a_at) / RFU PLEKHG5 (11743358_a_at) / Fold change /veh PLEKHG5 (11743358_a_at) / RFU ZSCAN30 (11745921_a_at) / Fold change /veh ZSCAN30 (11745921_a_at) / RFU CMKLR1 (11741424_a_at) / Fold change /veh CMKLR1 (11741424_a_at) / RFU LOC101060620 /// MAPK8IP1 (11723275_at) / Fold change /veh LOC101060620 /// MAPK8IP1 (11723275_at) / RFU SPTSSB (11747773_x_at) / Fold change /veh SPTSSB (11747773_x_at) / RFU PRSS12 (11739890_at) / Fold change /veh PRSS12 (11739890_at) / RFU BIN1 (11741810_x_at) / Fold change /veh BIN1 (11741810_x_at) / RFU WNT11 (11732464_a_at) / Fold change /veh WNT11 (11732464_a_at) / RFU C10orf10 (11716521_a_at) / Fold change /veh C10orf10 (11716521_a_at) / RFU C5orf56 (11738089_at) / Fold change /veh C5orf56 (11738089_at) / RFU CYB561 (11721691_x_at) / Fold change /veh CYB561 (11721691_x_at) / RFU ANKRD19P (11752326_a_at) / Fold change /veh ANKRD19P (11752326_a_at) / RFU OR2T12 /// OR2T33 /// OR2T8 (11738714_s_at) / Fold change /veh OR2T12 /// OR2T33 /// OR2T8 (11738714_s_at) / RFU VCAN (11748164_a_at) / Fold change /veh VCAN (11748164_a_at) / RFU JSRP1 (11732532_at) / Fold change /veh JSRP1 (11732532_at) / RFU KRTAP10-11 (11738290_x_at) / Fold change /veh KRTAP10-11 (11738290_x_at) / RFU MYO3A (11730013_a_at) / Fold change /veh MYO3A (11730013_a_at) / RFU EBF3 (11725865_a_at) / Fold change /veh EBF3 (11725865_a_at) / RFU CAMK2N1 (11719241_x_at) / Fold change /veh CAMK2N1 (11719241_x_at) / RFU C5orf56 (11738088_a_at) / Fold change /veh C5orf56 (11738088_a_at) / RFU OLFML3 (11715873_a_at) / Fold change /veh OLFML3 (11715873_a_at) / RFU LOC100653217 /// NTM (11731650_a_at) / Fold change /veh LOC100653217 /// NTM (11731650_a_at) / RFU MAPK11 (11762145_a_at) / Fold change /veh MAPK11 (11762145_a_at) / RFU FIZ1 (11724087_x_at) / Fold change /veh FIZ1 (11724087_x_at) / RFU OASL (11726364_x_at) / Fold change /veh OASL (11726364_x_at) / RFU SOX15 (11748057_x_at) / Fold change /veh SOX15 (11748057_x_at) / RFU CD79A (11719716_a_at) / Fold change /veh CD79A (11719716_a_at) / RFU HIST1H1D (11736915_at) / Fold change /veh HIST1H1D (11736915_at) / RFU CASKIN2 (11723855_a_at) / Fold change /veh CASKIN2 (11723855_a_at) / RFU LOC730098 (11760151_x_at) / Fold change /veh LOC730098 (11760151_x_at) / RFU OR4N2 (11742367_at) / Fold change /veh OR4N2 (11742367_at) / RFU PRRT2 (11749266_a_at) / Fold change /veh PRRT2 (11749266_a_at) / RFU SNX32 (11753110_a_at) / Fold change /veh SNX32 (11753110_a_at) / RFU CDHR5 (11726645_a_at) / Fold change /veh CDHR5 (11726645_a_at) / RFU RCAN1 (11760418_a_at) / Fold change /veh RCAN1 (11760418_a_at) / RFU FAM167A (11723789_a_at) / Fold change /veh FAM167A (11723789_a_at) / RFU FAM26E (11764081_at) / Fold change /veh FAM26E (11764081_at) / RFU ISYNA1 (11749810_s_at) / Fold change /veh ISYNA1 (11749810_s_at) / RFU ACY1 (11761880_at) / Fold change /veh ACY1 (11761880_at) / RFU 11764098_at / Fold change /veh 11764098_at / RFU SAMD14 (11745864_x_at) / Fold change /veh SAMD14 (11745864_x_at) / RFU NPB (11741838_a_at) / Fold change /veh NPB (11741838_a_at) / RFU TMPRSS6 (11731388_a_at) / Fold change /veh TMPRSS6 (11731388_a_at) / RFU KRTAP10-2 (11738614_at) / Fold change /veh KRTAP10-2 (11738614_at) / RFU ARHGAP8 /// PRR5-ARHGAP8 (11727945_x_at) / Fold change /veh ARHGAP8 /// PRR5-ARHGAP8 (11727945_x_at) / RFU KRTAP5-7 /// NADSYN1 (11734609_at) / Fold change /veh KRTAP5-7 /// NADSYN1 (11734609_at) / RFU RASL12 (11751679_a_at) / Fold change /veh RASL12 (11751679_a_at) / RFU CDKN2B (11736163_a_at) / Fold change /veh CDKN2B (11736163_a_at) / RFU PRF1 (11729649_at) / Fold change /veh PRF1 (11729649_at) / RFU, ZNF638 /// ZNF638-IT1 / Fold change vs veh, ZNF638 /// ZNF638-IT1 / RFU, PANK3 / Fold change vs veh, PANK3 / RFU, SH3YL1 / Fold change vs veh, SH3YL1 / RFU, ZEB2 / Fold change vs veh, ZEB2 / RFU, NRIP1 / Fold change vs veh, NRIP1 / RFU, PTTG1IP / Fold change vs veh, PTTG1IP / RFU, CAPN2 / Fold change vs veh, CAPN2 / RFU, MED14 / Fold change vs veh, MED14 / RFU, SNORA58 / Fold change vs veh, SNORA58 / RFU, C1orf63 / Fold change vs veh, C1orf63 / RFU, LRRFIP1 / Fold change vs veh, LRRFIP1 / RFU, NDUFAF7 / Fold change vs veh, NDUFAF7 / RFU, SLC12A2 / Fold change vs veh, SLC12A2 / RFU, IBTK / Fold change vs veh, IBTK / RFU, ESF1 / Fold change vs veh, ESF1 / Fold change vs veh, TMEM50B / RFU, TAOK1 / Fold change vs veh, TAOK1 / RFU, ACBD3 / Fold change vs veh, ACBD3 / RFU, TMA16 / Fold change vs veh, TMA16 / RFU, RWDD3 / Fold change vs veh, RWDD3 / RFU, BCAT1 / Fold change vs veh, BCAT1 / RFU, EDEM3 / Fold change vs veh, EDEM3 / RFU, TMEM33 / Fold change vs veh, TMEM33 / RFU, WDR75 / Fold change vs veh, WDR75 / RFU, AHCTF1 / Fold change vs veh, AHCTF1 / RFU, TFRC / Fold change vs veh, TFRC / RFU, ZDHHC17 / Fold change vs veh, ZDHHC17 / RFU, NOM1 / Fold change vs veh, NOM1 / RFU, ARL8B / Fold change vs veh, ARL8B / RFU, ZBTB11 / Fold change vs veh, ZBTB11 / RFU, TAMM41 / Fold change vs veh, TAMM41 / RFU, KIAA1704 /// LOC100996395 / Fold change vs veh, KIAA1704 /// LOC100996395 / RFU, ING1 / Fold change vs veh, ING1 / RFU, TRMT61B / Fold change vs veh, TRMT61B / RFU, FUBP3 / Fold change vs veh, FUBP3 / RFU, TP53 / Fold change vs veh, TP53 / RFU, TNKS2 / Fold change vs veh, TNKS2 / RFU, ZFP14 / Fold change vs veh, ZFP14 / RFU, ACTR2 / Fold change vs veh, ACTR2 / RFU, PPP3R1 / Fold change vs veh, PPP3R1 / RFU, PIK3R1 / Fold change vs veh, PIK3R1 / RFU, HNRNPA1 / Fold change vs veh, HNRNPA1 / RFU, RNF170 / Fold change vs veh, RNF170 / RFU, ZNF28 / Fold change vs veh, ZNF28 / RFU, RNGTT / Fold change vs veh, RNGTT / RFU, OGT / Fold change vs veh, OGT / RFU, BRD1 / Fold change vs veh, BRD1 / RFU, MARS / Fold change vs veh, MARS / RFU, ZNF655 / Fold change vs veh, ZNF655 / RFU, FAHD1 / Fold change vs veh, FAHD1 / RFU, BDP1 / Fold change vs veh, BDP1 / RFU, LRRCC1 / Fold change vs veh, LRRCC1 / RFU, ARID1A / Fold change vs veh, ARID1A / RFU, ZNF146 / Fold change vs veh, ZNF146 / RFU, ZNF330 / Fold change vs veh, ZNF330 / RFU, GPN3 / Fold change vs veh, GPN3 / RFU, C9orf123 / Fold change vs veh, C9orf123 / RFU, N4BP2L2 / Fold change vs veh, N4BP2L2 / RFU, ARFIP1 / Fold change vs veh, ARFIP1 / RFU, FAM179B / Fold change vs veh, FAM179B / RFU, BCL10 / Fold change vs veh, BCL10 / RFU, UHRF1BP1L / Fold change vs veh, UHRF1BP1L / RFU, BET1 / Fold change vs veh, BET1 / RFU, CNOT2 / Fold change vs veh, CNOT2 / RFU, ZNF268 / Fold change vs veh, ZNF268 / Fold change vs veh, ZNF507 / RFU, DGCR2 / Fold change vs veh, DGCR2 / RFU, WDSUB1 / Fold change vs veh, WDSUB1 / Fold change vs veh, HSP90B1 /// MIR3652 / RFU, ADSS / Fold change vs veh, ADSS / RFU, GK / Fold change vs veh, GK / RFU, ZNF148 / Fold change vs veh, ZNF148 / RFU, TAF9 / Fold change vs veh, TAF9 / RFU, SLC1A5 / Fold change vs veh, SLC1A5 / RFU, SLMO2 / Fold change vs veh, SLMO2 / RFU, ABCC4 / Fold change vs veh, ABCC4 / RFU, LOC101060439 /// RAP1B / Fold change vs veh, LOC101060439 /// RAP1B / RFU, RFX7 / Fold change vs veh, RFX7 / RFU, GTPBP10 / Fold change vs veh, GTPBP10 / RFU, CNEP1R1 / Fold change vs veh, CNEP1R1 / RFU, BIVM-ERCC5 /// ERCC5 / Fold change vs veh, BIVM-ERCC5 /// ERCC5 / RFU, ILF3 / Fold change vs veh, ILF3 / RFU 11762660_at / Fold change /veh 11762660_at / RFU VCAN (11757783_s_at) / Fold change /veh VCAN (11757783_s_at) / RFU DDX43 (11728927_at) / Fold change /veh DDX43 (11728927_at) / RFU KRT8 (11758188_x_at) / Fold change /veh KRT8 (11758188_x_at) / RFU NKD1 (11759106_at) / Fold change /veh NKD1 (11759106_at) / RFU SRD5A1 (11742802_a_at) / Fold change /veh SRD5A1 (11742802_a_at) / RFU TPSAB1 /// TPSB2 (11721975_s_at) / Fold change /veh TPSAB1 /// TPSB2 (11721975_s_at) / RFU GSTM3 (11746129_a_at) / Fold change /veh GSTM3 (11746129_a_at) / RFU IL23R (11737362_x_at) / Fold change /veh IL23R (11737362_x_at) / RFU TMEM51 (11727254_a_at) / Fold change /veh TMEM51 (11727254_a_at) / RFU PIWIL2 (11732686_x_at) / Fold change /veh PIWIL2 (11732686_x_at) / RFU ORM1 (11744905_x_at) / Fold change /veh ORM1 (11744905_x_at) / RFU CCDC152 (11743942_at) / Fold change /veh CCDC152 (11743942_at) / RFU ECM1 (11717891_a_at) / Fold change /veh ECM1 (11717891_a_at) / RFU IL23R (11748794_a_at) / Fold change /veh IL23R (11748794_a_at) / RFU TNFAIP8L3 (11732012_x_at) / Fold change /veh TNFAIP8L3 (11732012_x_at) / RFU MBOAT4 (11741988_at) / Fold change /veh MBOAT4 (11741988_at) / RFU 11764193_at / Fold change /veh 11764193_at / RFU TMEM53 (11763286_at) / Fold change /veh TMEM53 (11763286_at) / RFU MAGEB2 (11727129_at) / Fold change /veh MAGEB2 (11727129_at) / RFU TMEM200A (11744735_a_at) / Fold change /veh TMEM200A (11744735_a_at) / RFU CCDC152 (11751479_a_at) / Fold change /veh CCDC152 (11751479_a_at) / RFU FAM211A (11726209_a_at) / Fold change /veh FAM211A (11726209_a_at) / RFU RGS16 (11746705_a_at) / Fold change /veh RGS16 (11746705_a_at) / RFU VCAN (11755009_s_at) / Fold change /veh VCAN (11755009_s_at) / RFU RHOB (11743442_s_at) / Fold change /veh RHOB (11743442_s_at) / RFU RGS16 (11720943_a_at) / Fold change /veh RGS16 (11720943_a_at) / RFU RGS16 (11720944_at) / Fold change /veh RGS16 (11720944_at) / RFU, VPS4B / Fold change vs veh, VPS4B / RFU, CREB1 / Fold change vs veh, CREB1 / RFU, DNAJC13 / Fold change vs veh, DNAJC13 / RFU, GNAQ / Fold change vs veh, GNAQ / RFU, CDK5R1 / Fold change vs veh, CDK5R1 / RFU, ZRANB3 / Fold change vs veh, ZRANB3 / RFU, CUL4A / Fold change vs veh, CUL4A / RFU, CCNY / Fold change vs veh, CCNY / RFU, UFL1 / Fold change vs veh, UFL1 / RFU, COG3 / Fold change vs veh, COG3 / RFU, DIAPH2 / Fold change vs veh, DIAPH2 / RFU, SKA2 / Fold change vs veh, SKA2 / RFU, AFF3 / Fold change vs veh, AFF3 / RFU, LMF1 / Fold change vs veh, LMF1 / RFU, IPO11 / Fold change vs veh, IPO11 / RFU, DFFB / Fold change vs veh, DFFB / RFU, FOXP1 / Fold change vs veh, FOXP1 / RFU, CARD8 / Fold change vs veh, CARD8 / RFU, STRN3 / Fold change vs veh, STRN3 / RFU, ADK / Fold change vs veh, ADK / RFU, RASSF2 / Fold change vs veh, RASSF2 / RFU, WIPF1 / Fold change vs veh, WIPF1 / RFU, LARP1B / Fold change vs veh, LARP1B / RFU, RASA1 / Fold change vs veh, RASA1 / RFU, RB1 / Fold change vs veh, RB1 / RFU, PPFIA1 / Fold change vs veh, PPFIA1 / RFU, MAT2A / Fold change vs veh, MAT2A / RFU, CCT5 / Fold change vs veh, CCT5 / RFU, WDR92 / Fold change vs veh, WDR92 / RFU, CUX1 / Fold change vs veh, CUX1 / RFU, TTC7A / Fold change vs veh, TTC7A / RFU, TMEM135 / Fold change vs veh, TMEM135 / RFU, DEPTOR / Fold change vs veh, DEPTOR / RFU, CPM / Fold change vs veh, CPM / RFU, DNAJB6 / Fold change vs veh, DNAJB6 / RFU, CACNA2D3 / Fold change vs veh, CACNA2D3 / RFU, DTX4 / Fold change vs veh, DTX4 / RFU, TFCP2 / Fold change vs veh, TFCP2 / RFU, GMCL1 /// GMCL1P1 / Fold change vs veh, GMCL1 /// GMCL1P1 / RFU, AEBP2 / Fold change vs veh, AEBP2 / RFU, SNHG1 /// SNORD22 /// SNORD25 /// SNORD26 /// SNORD27 /// SNORD28 /// SNORD29 /// SNORD31 / Fold change vs veh, SNHG1 /// SNORD22 /// SNORD25 /// SNORD26 /// SNORD27 /// SNORD28 /// SNORD29 /// SNORD31 / Fold change (Aza/veh), C12orf56 (ProbeSet 11735607_a_at) / Fold change (ACY-1035/veh), C12orf56 (ProbeSet 11735607_a_at) / Fold change (Aza/veh), FGFR1OP (ProbeSet 11751329_s_at) / Fold change (ACY-1035/veh), FGFR1OP (ProbeSet 11751329_s_at) / Fold change (Aza/veh), VPS36 (ProbeSet 11739960_a_at) / Fold change (ACY-1035/veh), VPS36 (ProbeSet 11739960_a_at) / RFU SYPL1 (11715823_x_at) / Fold change /veh SYPL1 (11715823_x_at) / RFU IGFBP7 (11715501_s_at) / Fold change /veh IGFBP7 (11715501_s_at) / RFU REEP3 (11722064_at) / Fold change /veh REEP3 (11722064_at) / RFU IGLL1 (11728026_x_at) / Fold change /veh IGLL1 (11728026_x_at): dose or concentration left out as unconfirmed.

Consider `Nc1ccc(-c2cccs2)cc1NC(=O)c1ccc2c(c1)cc(C1CC1)n2CCN1CCOCC1` [ACY-1035], for which the “RFU, HNRNPA1” value was 4786.54 RFU.
